Legend:
[1] = target: T1, α1βB glycine receptor (ZF-α1GlyR subunit) (Danio rerio, UniProt O93430+Q6DC22); assay: cryo-EM structure, […] Å ([…] glycine); EC50 from whole-cell currents in HEK […] T cells (homomeric α[…]); assay type: cell-based; design: gene glra1; full-length α1GlyR (NP_571477.1) with C-terminal thrombin site and 8xHis tag, 4α:1β heteropentamer; with βBGlyR (glrbb, NP_001003587.1); rat gephyrin E domain co-purified (not resolved)
T1 sequence (O93430 25-444): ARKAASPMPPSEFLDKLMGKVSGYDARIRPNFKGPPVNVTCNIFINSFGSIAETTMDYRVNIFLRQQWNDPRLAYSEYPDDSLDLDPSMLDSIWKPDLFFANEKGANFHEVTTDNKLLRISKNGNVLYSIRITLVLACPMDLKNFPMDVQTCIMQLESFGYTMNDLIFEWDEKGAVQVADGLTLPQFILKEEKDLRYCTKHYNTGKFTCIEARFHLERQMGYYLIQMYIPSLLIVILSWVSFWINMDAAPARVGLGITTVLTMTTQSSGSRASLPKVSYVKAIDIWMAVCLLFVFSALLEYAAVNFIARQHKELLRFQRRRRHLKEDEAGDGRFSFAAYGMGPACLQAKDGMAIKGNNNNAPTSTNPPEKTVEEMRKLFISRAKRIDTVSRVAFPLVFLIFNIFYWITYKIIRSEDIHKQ
T1 sequence (Q6DC22 23-494): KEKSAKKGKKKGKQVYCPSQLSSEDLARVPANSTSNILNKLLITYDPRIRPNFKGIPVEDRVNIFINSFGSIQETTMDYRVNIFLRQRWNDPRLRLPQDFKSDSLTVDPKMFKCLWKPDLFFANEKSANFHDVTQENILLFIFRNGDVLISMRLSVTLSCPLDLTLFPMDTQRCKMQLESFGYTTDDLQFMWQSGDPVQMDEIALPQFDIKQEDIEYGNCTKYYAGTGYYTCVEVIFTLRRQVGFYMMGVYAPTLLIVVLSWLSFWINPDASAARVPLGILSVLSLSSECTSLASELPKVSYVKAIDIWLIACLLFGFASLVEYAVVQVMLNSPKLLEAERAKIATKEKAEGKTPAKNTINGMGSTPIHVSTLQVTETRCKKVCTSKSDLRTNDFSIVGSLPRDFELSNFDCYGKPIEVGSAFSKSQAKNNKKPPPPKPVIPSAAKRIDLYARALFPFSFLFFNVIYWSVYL
Description: The carboxyl oxygens form hydrogen bonds with αS153 (βS173) on Loop E

[2] = target: T1, α1βB glycine receptor (ZF-α1GlyR subunit); design: gene glra1
[3] = target: T2, zebrafish glycine receptor βB subunit (ZF-βBGlyR), full length (zebrafish, UniProt Q6DC22 1-494, N-glycans at N54 and N241); assay: cryo-EM structure; αβGlyR-Geph-E sample co-expressed in Sf9 and co-purified in DDM, vitrified on graphene-oxide grids with 100 µM strychnine, 1 mM glycine, or 1 mM glycine and 20 µM ivermectin; no fiduciary marker; settings: partners not purified
T2 construct: glycine receptor βB subunit, zebrafish, NCBI NP_001003587.1, codon-optimised full-length gene; One copy stands in the αβGlyR heteropentamer (4α:1β); also called βGlyR; GlyRβB; source: Sf9 (ExpiSf9) cells, baculovirus (pFastBacDual, polyhedrin promoter), co-expressed with α1GlyR and Geph-E
T2 sequence (looked up): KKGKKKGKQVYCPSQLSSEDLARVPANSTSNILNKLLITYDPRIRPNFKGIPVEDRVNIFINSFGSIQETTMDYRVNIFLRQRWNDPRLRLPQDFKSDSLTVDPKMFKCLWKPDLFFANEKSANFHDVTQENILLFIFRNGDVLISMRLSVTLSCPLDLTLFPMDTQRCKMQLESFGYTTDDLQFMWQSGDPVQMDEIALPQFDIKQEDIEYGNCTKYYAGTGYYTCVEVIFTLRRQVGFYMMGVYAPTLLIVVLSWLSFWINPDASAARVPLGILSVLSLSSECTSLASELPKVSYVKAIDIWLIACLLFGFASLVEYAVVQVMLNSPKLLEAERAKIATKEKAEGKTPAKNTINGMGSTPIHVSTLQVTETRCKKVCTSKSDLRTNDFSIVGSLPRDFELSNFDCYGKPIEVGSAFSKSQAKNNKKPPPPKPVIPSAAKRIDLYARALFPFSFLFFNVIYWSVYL

With `NCC(=O)O` [glycine] the EC50 [1] was 63 ± 13 µM.

In the case of `O=C1C[C@@H]2OCC=C3CN4CC[C@]56c7ccccc7N1[C@H]5[C@H]2[C@H]3C[C@H]46` [strychnine], the “cryo-EM structure, 2.97 Å (100 μM strychnine)” value [2] is reported as “Strychnine density is well-defined in αβGlyR-Stry and is essentially in the same orientation across all five subunits”.

B1: zebrafish glycine receptor α1 subunit (ZF-α1GlyR), full length (receptor, UniProt O93430 25-444, looked up)
chain: T1 sequence (O93430 25-444)
modifications: N-glycan at N62
notes: glycine receptor α1 subunit, zebrafish, NCBI NP_571477.1, codon-optimised full-length gene; Four copies stand in the αβGlyR heteropentamer (4α:1β); The full-length gene was expressed; also called αGlyR; GlyRα1; source: Sf9 (ExpiSf9) cells, baculovirus (pFastBacDual, p10 promoter), co-expressed with βBGlyR and Geph-E; not shown: 8x His (after a thrombin site LVPRGS), C-terminal, kept
For B1, the “stoichiometry N” value [3] was 4 α per β.

From paper PMC10011588, “Conformational transitions and allosteric modulation in a heteromeric glycine receptor” (Nature Communications, 2023)
